Data on 34 compounds can be found in US6110961A, “Phenoxathin derivatives as inhibitors of monoamine oxidase” (Krenitsky Pharmaceuticals, Inc., priority 1999, dated 2000).

Structures are written as SMILES.

The first assay concerns liver MAO-A.
Test: not given
Conditions: single oral dose giving approximately 80% inhibition of brain MAO-A; 3 hours.
Take `NNCCc1ccccc1` [phenelzine]: the “inhibition of liver MAO-A” value was at least 90%.

In another assay the test system is MAO.
Test: not given
Conditions: background art; cited from earlier work.
As to `N[C@@H]1C[C@H]1c1ccccc1` (relative stereo) [tranylcypromine], the “selectivity and reversibility of MAO inhibition” value is listed as “non-selective, irreversible inhibitors”. In the case of `Cc1cc(C(=O)NNCc2ccccc2)no1` [isocarboxazid], the “selectivity and reversibility of MAO inhibition” value was “non-selective, irreversible inhibitors”. Turning to `NNCCc1ccccc1` [phenelzine], the “selectivity and reversibility of MAO inhibition” value was “non-selective, irreversible inhibitors”.

Another assay concerns the target T1, MAO-A (Rattus norvegicus, UniProt P21396).
T1 construct: mitochondrial extracts of rat brain; from tissue; host or cells: rat brain, mitochondrial extracts
T1 sequence (P21396 1-526): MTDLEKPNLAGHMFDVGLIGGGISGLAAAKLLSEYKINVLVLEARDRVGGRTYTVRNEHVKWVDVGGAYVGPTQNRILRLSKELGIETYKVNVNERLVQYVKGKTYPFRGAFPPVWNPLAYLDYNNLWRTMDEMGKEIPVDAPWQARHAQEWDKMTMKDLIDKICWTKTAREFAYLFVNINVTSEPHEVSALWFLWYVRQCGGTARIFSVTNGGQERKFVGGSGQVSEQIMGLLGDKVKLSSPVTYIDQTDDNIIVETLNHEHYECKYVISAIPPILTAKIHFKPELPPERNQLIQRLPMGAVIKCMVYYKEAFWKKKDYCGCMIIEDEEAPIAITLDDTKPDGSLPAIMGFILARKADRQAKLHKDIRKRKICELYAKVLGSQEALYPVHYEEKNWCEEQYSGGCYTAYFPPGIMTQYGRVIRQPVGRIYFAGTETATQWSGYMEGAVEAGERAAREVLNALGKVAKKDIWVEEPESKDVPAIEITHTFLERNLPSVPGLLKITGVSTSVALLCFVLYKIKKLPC
Briefly: MAO-A inhibition in mitochondrial extracts of rat brain (in vitro, double-label assay). The assay is classed as biochemical. Conditions: [3H]serotonin 0.2 mM substrate. As to the method:
MAO was assayed with [^3 H]serotonin (0.2 mM, 5 Ci/mole) and [^14 C]β-phenethylamine (10 μM, 3 Ci/mole) as substrates in a double-label assay (white and Glassman, J. Neurochem. 29:987-97 (1977)). Under these conditions, serotonin is selectively metabolized by MAO-A and β-phenethylamine by MAO-B. […]
Compounds of formula (I) produced a potent selective inhibition of MAO-A in mitochondrial extracts of rat brain, the IC50 s (concentration producing 50% inhibition) being shown in Table I. This inhibition was competitive vs. the substrates serotonin or tyramine.
The results are shown in Table 1 with the IC50 being the concentration providing 50% inhibition. No significant inhibition of MAO-B was found with these compounds.
A word on the IC50: it is the concentration at which inhibition is half-maximal. Low readings indicate greater potency in that assay, high ones weaker potency in that assay. `CCC(C)Oc1ccc2c(c1)Oc1ccccc1S2(=O)=O` (racemic) [Compound 13, (rac)-3-(1-methylpropoxy)phenoxathiin-10,10-dioxide] registered an IC50 of 14 nM. That is a double-digit nanomolar value. On the same count and under the same terms, the same measure for `CC(CO)Oc1ccc2c(c1)Oc1ccccc1S2(=O)=O` (racemic) [Compound 18, (rac)-2-(3-phenoxathiinyloxy)propanol S,S-dioxide]: 20 nM; for `CC(Oc1ccc2c(c1)Oc1ccccc1S2(=O)=O)C(F)(F)F` (racemic) [Compound 20, (rac)-3-(2,2,2-trifluoro-1-methylethoxy)phenoxathiin-10,10-dioxide]: 5 nM; for `CC(Oc1ccc2c(c1)Oc1ccccc1S2(=O)=O)C(F)F` (racemic) [Compound 25, (rac)-3-(1-(difluoromethyl)ethoxy)phenoxathiin-10,10-dioxide]: 1.8 nM. `O=S1(=O)c2ccccc2Oc2cc(OC(CF)C(F)(F)F)ccc21` (racemic) [Compound 26, (rac)-3-(2-fluoro-1-(trifluoromethyl)ethoxy)phenoxathiin-10,10-dioxide]: the “MAO-A Inhibition (rat brain) in vitro IC50” value (shortened to “MAO-A Inhibition (rat brain)”) is “active”.

`CC(CF)Oc1ccc2c(c1)Oc1ccccc1S2(=O)=O` (racemic) [Compound 27, (rac)-3-(1-(fluoromethyl)ethoxy)phenoxathiin-10,10-dioxide]: the “MAO-A Inhibition (rat brain)” value is recorded as “active”. `O=S1(=O)c2ccccc2Oc2cc(OC(CO)C(F)(F)F)ccc21` (racemic) [Compound 28, (rac)-2-(3-phenoxathiinyloxy)-2-(trifluoromethyl)ethanol-S,S-dioxide] yielded an IC50 of 5 nM. That is a single-digit nanomolar value. On the same count and under the same terms, the same measure for `CC(Oc1ccc2c(c1)Oc1ccccc1S2(=O)=O)C(F)(F)F` (single isomer, unassigned) [Compound 29, (R*)-3-(2,2,2-trifluoro-1-methylethoxy)phenoxathiin-10,10-dioxide]: 2 nM; for `CC(Oc1ccc2c(c1)Oc1ccccc1S2(=O)=O)C(F)(F)F` (single isomer, unassigned) [Compound 30, (S*)-3-(2,2,2-trifluoro-1-methylethoxy)phenoxathiin-10,10-dioxide]: 14 nM.

The compound `CC(C)Oc1cc(F)c2c(c1)Oc1ccccc1S2(=O)=O` [Compound 1, 1-fluoro-3-isopropoxyphenoxathiin 10,10-dioxide] registered an IC50 of 1.1 nM.

Compound `CCOc1ccc2c(c1)Oc1ccccc1S2(=O)=O` [Compound 2, 3-ethoxyphenoxathiin 10,10-dioxide] showed an IC50 of 2 nM. On the same count and under the same terms, the same measure for `CCCOc1ccc2c(c1)Oc1ccccc1S2(=O)=O` [Compound 3, 3-propoxyphenoxathiin 10,10-dioxide]: 2.5 nM; for `CC(C)Oc1cc2c(c(F)c1F)S(=O)(=O)c1ccccc1O2` [Compound 4, 1,2-difluoro-3-isopropoxyphenoxathiin 10,10-dioxide]: 3 nM; for `CC(C)Oc1ccc2c(c1)Oc1ccccc1S2(=O)=O` [Compound 5, 3-isopropoxyphenoxathiin 10,10-dioxide]: 3.4 nM. Still for that read-out and setting: the same measure for `CC[C@@H](C)Oc1ccc2c(c1)Oc1ccccc1S2(=O)=O` [Compound 6, (R)-3-(1-methylpropoxy)phenoxathiin 10,10-dioxide]: 4 nM; for `CC[C@H](C)Oc1ccc2c(c1)Oc1ccccc1S2(=O)=O` [Compound 7, (S)-3-(1-methylpropoxy)phenoxathiin 10,10-dioxide]: 4 nM; for `CCCCOc1ccc2c(c1)Oc1ccccc1S2(=O)=O` [Compound 8, 3-butoxyphenoxathiin 10,10-dioxide]: 5 nM. Same read-out and setting: the same measure for `CC(C)Oc1ccc2c(c1)Oc1cc(F)c(F)cc1S2(=O)=O` [Compound 9, 7,8-difluoro-3-isopropoxyphenoxathiin-10,10-dioxide]: 6 nM; for `CC(C)Oc1ccc2c(c1)Oc1cccc(F)c1S2(=O)=O` [Compound 10, 9-fluoro-3-isopropoxyphenoxathiin 10,10-dioxide]: 8 nM; for `CC(C)Oc1ccc2c(c1)Oc1cc(F)ccc1S2(=O)=O` [Compound 11, 7-fluoro-3-isopropoxyphenoxathiin 10,10-dioxide]: 9 nM. Regarding `CC(C)Oc1cc2c(cc1F)S(=O)(=O)c1ccccc1O2` [Compound 12, 2-fluoro-3-isopropoxyphenoxathiin 10,10-dioxide], the IC50 came to 12 nM. Same read-out and setting: the same measure for `COc1ccc2c(c1)Oc1ccccc1S2(=O)=O` [Compound 14, 3-methoxyphenoxathiin 10,10-dioxide]: 20 nM; for `CC(C)(C)Oc1ccc2c(c1)Oc1ccccc1S2(=O)=O` [Compound 15, 3-tert-butoxyphenoxathiin 10,10-dioxide]: 26 nM.

In the case of `CC(C)Oc1cc2c(cc1F)S(=O)(=O)c1ccc(F)cc1O2` [Compound 16, 2,7-difluoro-3-isopropoxyphenoxathiin 10,10-dioxide], the 50% inhibitory concentration (IC50) stood at 35 nM. On the same count and under the same terms, the same measure for `CCCCCOc1ccc2c(c1)Oc1ccccc1S2(=O)=O` [Compound 17, 3-(pentyloxy)phenoxathiin 10,10-dioxide]: 55 nM; for `CC(C)Oc1cc(F)c2c(c1)Oc1cc(F)ccc1S2(=O)=O` [Compound 19, 1,7-difluoro-3-isopropoxyphenoxathiin 10,10-dioxide]: 5 nM; for `C[C@@H](CO)Oc1ccc2c(c1)Oc1ccccc1S2(=O)=O` [Compound 21, (S)-(+)-2-(3-phenoxathiinyloxy)propanol S,S-dioxide]: 70 nM. On to `O=S1(=O)c2ccccc2Oc2cc(OCC(F)(F)F)ccc21` [Compound 22, 3-(2,2,2-trifluoroethoxy)phenoxathiin 10,10-dioxide], for which the IC50 worked out at 8 nM. The same measure, in the same setting: the same measure for `O=S1(=O)c2ccccc2Oc2cc(OC(CF)CF)ccc21` [Compound 23, 3-[2-fluoro-1-(fluoromethyl)ethoxy]phenoxathiin-10,10-dioxide]: 2 nM.

For `O=S1(=O)c2ccccc2Oc2cc(OC(C(F)F)C(F)F)ccc21` [Compound 24, 3-(2,2-(difluoro)-1-(difluoromethyl)ethoxy)phenoxathiin-10,10-dioxide], the midpoint of inhibition, the IC50, lay at 3.5 nM. `O=S1(=O)c2ccc(F)cc2Oc2cc(OCC(F)(F)F)ccc21` [Compound 31, 3-fluoro-7-(2,2,2-trifluoroethoxy)phenoxathiin-10,10-dioxide]: the “MAO-A Inhibition (rat brain)” value is listed as “active”.
